In the supplement of paper PMC12463676, “Small-molecule dissolution of stress granules by redox modulation benefits ALS models” (Nature Chemical Biology, 2025):

Assays:
[1] = compound: NC(=O)CCCCC1CCSS1 [lipoamide]; assay: thermal stability z-score vs DMSO; higher = more thermally stabilized by treatment; settings: HeLa, lipoamide concentration 100 µM
Protocol: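 Cellular thermal proteome profiling in HeLa cells. Cells were treated with 100 µM lipoamide for 1 h, with or without 1 mM arsenate for a further 1 h, then heated to ten temperatures (37-66.3 °C), and soluble protein was quantified by TMT mass spectrometry relative to 0.1% DMSO controls. The thermal stability score (sum of log2 fold changes minus the abundance score) was transformed to a z-score; mean of n = 3 experiments.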

[2] = compound: O=[As]([O-])(O)O.[K+] [potassium arsenate]; assay: as above; settings: HeLa; arsenate concentration 1 mM
Protocol: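 Cellular thermal proteome profiling in HeLa cells treated with 1 mM arsenate for 1 h (DMSO pretreatment), heated to ten temperatures (37-66.3 °C). Soluble protein was quantified by TMT mass spectrometry relative to DMSO controls; the thermal stability score was transformed to a z-score; mean of n = 3 experiments.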

[3] = arsenate co-treatment: 1 mM arsenate 1 h
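Note: each temperature applied for 3 min, abundance score taken as mean log2 fold change at the two lowest temperatures, z-score obtained by mean subtraction and division by SD.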

UniProt Q8NFV4, sequence (Q8NFV4 whole entry): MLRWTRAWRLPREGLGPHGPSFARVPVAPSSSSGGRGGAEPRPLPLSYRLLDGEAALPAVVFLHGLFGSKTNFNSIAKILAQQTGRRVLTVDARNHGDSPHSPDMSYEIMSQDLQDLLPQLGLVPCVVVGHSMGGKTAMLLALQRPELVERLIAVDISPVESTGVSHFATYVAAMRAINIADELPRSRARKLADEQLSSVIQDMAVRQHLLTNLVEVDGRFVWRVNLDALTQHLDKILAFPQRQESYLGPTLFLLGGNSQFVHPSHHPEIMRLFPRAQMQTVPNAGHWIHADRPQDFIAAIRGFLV
UniProt P33897, sequence (P33897 whole entry): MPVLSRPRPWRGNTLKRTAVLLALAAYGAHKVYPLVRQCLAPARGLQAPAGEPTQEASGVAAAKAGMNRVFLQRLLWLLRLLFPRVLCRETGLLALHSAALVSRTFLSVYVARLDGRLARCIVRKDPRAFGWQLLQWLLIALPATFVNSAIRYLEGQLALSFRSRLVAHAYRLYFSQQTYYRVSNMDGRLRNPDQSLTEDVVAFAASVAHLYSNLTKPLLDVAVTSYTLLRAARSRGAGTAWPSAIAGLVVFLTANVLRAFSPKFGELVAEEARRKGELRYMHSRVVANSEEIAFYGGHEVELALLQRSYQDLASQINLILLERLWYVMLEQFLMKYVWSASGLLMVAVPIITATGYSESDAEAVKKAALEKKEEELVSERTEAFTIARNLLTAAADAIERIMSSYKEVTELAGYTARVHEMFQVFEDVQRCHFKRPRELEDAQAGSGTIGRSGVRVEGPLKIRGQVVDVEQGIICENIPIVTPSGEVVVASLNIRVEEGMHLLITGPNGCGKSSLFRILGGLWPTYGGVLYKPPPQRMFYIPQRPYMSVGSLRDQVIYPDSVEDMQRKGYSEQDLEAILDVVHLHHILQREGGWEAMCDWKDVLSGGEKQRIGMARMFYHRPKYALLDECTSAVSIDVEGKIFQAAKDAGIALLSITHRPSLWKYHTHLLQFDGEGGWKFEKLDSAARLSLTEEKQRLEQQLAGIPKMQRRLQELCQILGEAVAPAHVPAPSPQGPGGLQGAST
UniProt Q8N2K0, sequence (Q8N2K0 whole entry): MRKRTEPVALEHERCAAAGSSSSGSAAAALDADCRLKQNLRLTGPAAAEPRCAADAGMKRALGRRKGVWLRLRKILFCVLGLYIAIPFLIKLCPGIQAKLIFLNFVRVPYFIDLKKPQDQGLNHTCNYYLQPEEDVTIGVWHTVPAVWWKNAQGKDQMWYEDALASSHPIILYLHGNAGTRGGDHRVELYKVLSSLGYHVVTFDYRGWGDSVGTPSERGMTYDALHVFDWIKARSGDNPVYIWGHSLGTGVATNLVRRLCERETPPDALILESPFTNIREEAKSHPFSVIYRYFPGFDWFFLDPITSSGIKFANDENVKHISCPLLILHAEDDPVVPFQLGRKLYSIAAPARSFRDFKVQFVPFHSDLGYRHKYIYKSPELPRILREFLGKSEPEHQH
UniProt P28288, sequence (P28288 whole entry): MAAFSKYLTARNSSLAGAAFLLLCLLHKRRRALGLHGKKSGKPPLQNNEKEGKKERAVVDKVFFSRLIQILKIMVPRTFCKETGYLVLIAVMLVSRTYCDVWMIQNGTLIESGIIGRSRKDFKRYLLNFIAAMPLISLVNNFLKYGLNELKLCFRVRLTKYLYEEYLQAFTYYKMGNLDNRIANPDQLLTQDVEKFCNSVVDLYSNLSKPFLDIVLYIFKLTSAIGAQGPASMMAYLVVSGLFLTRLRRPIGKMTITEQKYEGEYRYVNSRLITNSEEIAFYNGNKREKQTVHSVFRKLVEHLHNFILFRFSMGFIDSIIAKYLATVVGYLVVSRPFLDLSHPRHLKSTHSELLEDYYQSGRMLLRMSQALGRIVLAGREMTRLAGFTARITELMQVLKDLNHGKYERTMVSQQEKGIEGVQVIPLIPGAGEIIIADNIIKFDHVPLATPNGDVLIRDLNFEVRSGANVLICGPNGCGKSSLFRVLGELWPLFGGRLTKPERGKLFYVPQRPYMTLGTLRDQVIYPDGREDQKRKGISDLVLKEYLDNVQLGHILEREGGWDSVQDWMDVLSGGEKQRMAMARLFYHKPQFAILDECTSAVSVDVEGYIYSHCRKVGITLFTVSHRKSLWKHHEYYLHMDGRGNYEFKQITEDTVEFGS
UniProt O00154, sequence (O00154 whole entry): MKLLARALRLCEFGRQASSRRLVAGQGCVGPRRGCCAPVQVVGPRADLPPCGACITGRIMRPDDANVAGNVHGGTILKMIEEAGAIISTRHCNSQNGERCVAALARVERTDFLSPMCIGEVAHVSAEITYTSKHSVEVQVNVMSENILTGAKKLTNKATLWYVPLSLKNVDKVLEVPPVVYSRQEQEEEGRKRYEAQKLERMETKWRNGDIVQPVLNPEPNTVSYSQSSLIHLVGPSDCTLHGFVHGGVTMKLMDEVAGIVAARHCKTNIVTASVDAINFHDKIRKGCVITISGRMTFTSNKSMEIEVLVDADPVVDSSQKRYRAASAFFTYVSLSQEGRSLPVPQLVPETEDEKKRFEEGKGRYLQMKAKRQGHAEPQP
UniProt Q96IU4, sequence (Q96IU4 whole entry): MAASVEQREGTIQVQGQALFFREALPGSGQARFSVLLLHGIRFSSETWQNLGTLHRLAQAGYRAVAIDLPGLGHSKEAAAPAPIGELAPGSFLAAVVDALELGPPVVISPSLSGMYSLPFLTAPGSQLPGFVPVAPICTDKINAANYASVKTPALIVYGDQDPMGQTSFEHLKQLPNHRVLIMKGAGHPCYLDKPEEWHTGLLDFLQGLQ
UniProt Q9H7C9, sequence (Q9H7C9 whole entry): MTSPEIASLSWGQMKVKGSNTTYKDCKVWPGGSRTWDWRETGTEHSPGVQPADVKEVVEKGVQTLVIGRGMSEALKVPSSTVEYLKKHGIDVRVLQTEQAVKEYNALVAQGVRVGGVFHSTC
UniProt Q5JTZ9, sequence (Q5JTZ9 whole entry): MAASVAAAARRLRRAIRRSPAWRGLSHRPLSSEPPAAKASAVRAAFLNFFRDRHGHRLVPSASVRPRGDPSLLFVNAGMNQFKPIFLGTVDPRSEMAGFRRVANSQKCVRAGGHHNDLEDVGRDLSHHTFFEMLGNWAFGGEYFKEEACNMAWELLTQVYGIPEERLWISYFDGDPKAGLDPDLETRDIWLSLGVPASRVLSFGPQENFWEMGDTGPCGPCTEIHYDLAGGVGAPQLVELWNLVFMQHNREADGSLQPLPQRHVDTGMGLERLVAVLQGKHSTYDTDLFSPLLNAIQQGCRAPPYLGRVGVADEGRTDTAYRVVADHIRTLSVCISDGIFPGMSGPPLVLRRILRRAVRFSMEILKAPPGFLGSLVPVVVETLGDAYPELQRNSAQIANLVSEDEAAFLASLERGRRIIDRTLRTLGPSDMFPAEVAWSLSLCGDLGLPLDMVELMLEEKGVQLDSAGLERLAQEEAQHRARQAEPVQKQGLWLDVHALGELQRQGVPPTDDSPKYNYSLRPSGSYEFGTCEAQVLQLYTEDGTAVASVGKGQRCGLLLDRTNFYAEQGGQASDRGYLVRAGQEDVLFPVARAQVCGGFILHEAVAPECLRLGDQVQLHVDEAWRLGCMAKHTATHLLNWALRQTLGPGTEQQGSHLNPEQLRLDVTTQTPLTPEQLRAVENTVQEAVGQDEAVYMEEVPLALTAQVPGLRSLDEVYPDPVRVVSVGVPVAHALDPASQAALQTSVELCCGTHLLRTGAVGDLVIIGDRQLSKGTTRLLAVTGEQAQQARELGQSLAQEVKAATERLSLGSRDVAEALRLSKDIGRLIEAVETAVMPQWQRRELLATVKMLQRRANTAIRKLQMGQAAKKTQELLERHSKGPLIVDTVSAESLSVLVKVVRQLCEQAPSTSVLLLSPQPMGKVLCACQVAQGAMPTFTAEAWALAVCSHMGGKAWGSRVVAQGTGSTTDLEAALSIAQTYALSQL
UniProt O95870, sequence (O95870 whole entry): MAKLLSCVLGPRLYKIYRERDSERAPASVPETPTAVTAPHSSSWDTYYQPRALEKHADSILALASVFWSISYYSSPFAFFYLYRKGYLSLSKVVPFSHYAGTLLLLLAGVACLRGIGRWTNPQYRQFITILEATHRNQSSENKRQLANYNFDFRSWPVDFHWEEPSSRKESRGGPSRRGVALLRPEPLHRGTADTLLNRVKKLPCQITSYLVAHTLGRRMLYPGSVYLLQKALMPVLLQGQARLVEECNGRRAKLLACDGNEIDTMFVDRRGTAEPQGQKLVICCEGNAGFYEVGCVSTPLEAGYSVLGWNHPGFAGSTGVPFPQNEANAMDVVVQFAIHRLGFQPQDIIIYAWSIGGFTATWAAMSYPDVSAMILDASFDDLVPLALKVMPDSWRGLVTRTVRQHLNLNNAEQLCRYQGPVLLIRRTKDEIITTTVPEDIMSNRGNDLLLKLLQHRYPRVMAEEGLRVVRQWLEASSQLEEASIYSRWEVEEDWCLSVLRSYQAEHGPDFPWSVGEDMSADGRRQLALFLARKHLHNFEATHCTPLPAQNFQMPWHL
UniProt Q9NRG9, sequence (Q9NRG9 whole entry): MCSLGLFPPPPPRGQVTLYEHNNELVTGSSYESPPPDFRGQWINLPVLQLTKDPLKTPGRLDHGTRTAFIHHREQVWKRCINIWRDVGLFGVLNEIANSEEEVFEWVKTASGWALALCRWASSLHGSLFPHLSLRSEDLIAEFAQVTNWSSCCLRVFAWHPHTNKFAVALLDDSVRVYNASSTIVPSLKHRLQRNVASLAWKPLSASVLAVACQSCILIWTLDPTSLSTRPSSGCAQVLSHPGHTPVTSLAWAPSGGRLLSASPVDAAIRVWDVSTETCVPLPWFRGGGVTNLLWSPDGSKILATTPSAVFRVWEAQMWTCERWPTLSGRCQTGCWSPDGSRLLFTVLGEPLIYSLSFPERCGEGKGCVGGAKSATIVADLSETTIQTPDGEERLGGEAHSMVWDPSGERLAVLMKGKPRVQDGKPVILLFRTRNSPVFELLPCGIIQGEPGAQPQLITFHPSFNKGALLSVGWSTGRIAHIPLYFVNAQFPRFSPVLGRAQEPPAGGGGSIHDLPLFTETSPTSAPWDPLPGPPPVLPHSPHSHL

Target	thermal stability z-score [1, 3]	thermal stability z-score ([1]; arsenate co-treatment: none)	thermal stability z-score [2]
A0A0B4J2A0|SHPK	-0.157	-0.0688	-0.112
A0A0C4DFX4|SRCAP	0.121	-0.226	-0.111
A0A087WV05|MYCBP	1.93	1.66	0.26
A0A087WZ62	0.00979	0.224	0.358
AAAS (UniProt Q9NRG9)	-0.373	-0.12	0.108
AACS (UniProt Q86V21)	-0.257	-0.135	0.635
AAGAB (UniProt Q6PD74)	0.334	0.843	2.05
AAK1 (UniProt Q2M2I8)	0.286	0.0193	0.0056
AAMDC (UniProt Q9H7C9)	1.03	0.608	0.207
AAMP (UniProt Q13685)	0.409	-0.389	0.924
AAR2 (UniProt Q9Y312)	-0.223	0.408	-0.912
AARS2 (UniProt Q5JTZ9)	-0.428	-0.143	-0.095
AARS (UniProt P49588)	-0.195	-0.297	-1.29
AARSD1 (UniProt Q9BTE6)	0.0117	0.0955	0.428
AASDHPPT (UniProt Q9NRN7)	0.269	0.269	-0.589
ABCA2 (UniProt Q9BZC7)	0.0542	0.0722	-0.0916
ABCB1 (UniProt P08183)	0.00691	0.00658	-0.039
ABCB6 (UniProt Q9NP58)	-0.585	-0.323	-0.252
ABCB7 (UniProt O75027)	0.117	0.0859	0.456
ABCB8 (UniProt Q9NUT2)	-0.84	-0.813	-1.1
ABCB10 (UniProt Q9NRK6)	0.329	0.173	-0.034
ABCC1 (UniProt P33527)	0.473	0.0236	-0.579
ABCC2 (UniProt Q92887)	1.06	1.14	-0.256
ABCC4 (UniProt O15439)	0.622	0.731	-0.0795

Target	thermal stability z-score [1, 3]	thermal stability z-score ([1]; arsenate co-treatment: none)	thermal stability z-score [2]
ABCC5 (UniProt O15440)	0.335	0.0156	-0.077
ABCD1 (UniProt P33897)	-0.752	-0.422	0.118
ABCD3 (UniProt P28288)	-0.0141	-0.0329	-0.13
ABCE1 (UniProt P61221)	0.0869	0.0991	-0.471
ABCF1 (UniProt Q8NE71)	-0.384	-0.353	1.14
ABCF2 (UniProt Q9UG63)	-0.652	-0.279	1.72
ABCF3 (UniProt Q9NUQ8)	-0.505	-0.0312	0.516
ABCG2 (UniProt Q9UNQ0)	0.0159	-0.208	1.12
ABHD6 (UniProt Q9BV23)	-1.6	-1.07	-0.179
ABHD10 (UniProt Q9NUJ1)	0.377	-0.241	-0.374
ABHD11 (UniProt Q8NFV4)	0.183	0.151	0.254
ABHD12 (UniProt Q8N2K0)	-0.435	-0.517	-0.351
ABHD14B (UniProt Q96IU4)	1.24	0.828	0.527
ABHD16A (UniProt O95870)	-0.193	-0.0821	1.11
ABHD17B (UniProt Q5VST6)	-0.119	0.135	-0.595
ABHD17C (UniProt Q6PCB6)	-0.923	-0.152	-0.29
ABI1 (UniProt Q8IZP0)	-0.715	-0.452	-0.656
ABI2 (UniProt Q9NYB9)	0.0724	0.978	0.72
ABL1 (UniProt P00519)	-0.261	-0.21	0.137
ABL2 (UniProt P42684)	-0.0711	-0.109	-0.0185
ABLIM1 (UniProt O14639)	0.77	1.47	-1.82
ABR (UniProt Q12979)	-0.754	-0.915	-0.555
ACAA1 (UniProt P09110)	-0.181	0.335	0.919
ACAA2 (UniProt P42765)	0.0666	0.0527	-0.24

Target	thermal stability z-score [1, 3]	thermal stability z-score ([1]; arsenate co-treatment: none)	thermal stability z-score [2]
ACACA (UniProt Q13085)	-0.534	-0.289	0.153
ACAD8 (UniProt Q9UKU7)	0.0722	-0.0632	-0.989
ACAD9 (UniProt Q9H845)	0.127	0.0316	-0.21
ACAD11 (UniProt Q709F0)	-0.363	0.0251	-0.343
ACADM (UniProt P11310)	0.376	0.186	-1.07
ACADS (UniProt P16219)	0.116	-1.16	-2.93
ACADSB (UniProt P45954)	0.39	0.509	0.00788
ACADVL (UniProt P49748)	-0.94	-1.06	-0.558
ACAP2 (UniProt Q15057)	-0.177	0.0236	-0.178
ACAT1 (UniProt P24752)	0.399	1.07	0.878
ACAT2 (UniProt Q9BWD1)	-0.0152	6.3e-05	-0.347
ACBD3 (UniProt Q9H3P7)	0.447	0.826	0.21
ACBD5 (UniProt Q5T8D3)	-1.5	-0.737	0.243
ACBD6 (UniProt Q9BR61)	-1.02	-0.756	-0.675
ACIN1 (UniProt Q9UKV3)	1.66	0.763	0.115
ACLY (UniProt P53396)	0.0389	-0.136	-0.944
ACO1 (UniProt P21399)	0.259	-0.252	-0.945
ACO2 (UniProt Q99798)	-0.488	-0.402	-1.08
ACOT7 (UniProt O00154)	0.237	0.304	-0.151
ACOT8 (UniProt O14734)	0.492	0.113	0.0313
ACOT9 (UniProt Q9Y305)	0.00609	0.283	-0.344
ACOT13 (UniProt Q9NPJ3)	-0.279	-0.198	-0.202
ACOX1 (UniProt Q15067)	0.516	0.379	0.389
ACP1 (UniProt P24666)	-0.147	-0.0266	-1.2
